Experiments:
AMPKα2β1γ1 = molecular target: T1, AMPKα2β1γ1 (Homo sapiens, UniProt P54619+P54646+Q9Y478); assay: Activation of bacterially-expressed AMPKα2β1γ1 in vitro (HTRF-KinEASE Cisbio assay); assay type: biochemical; details: CaMKKβ-phosphorylated purified AMPK, varying concentrations, 30 mins, FIG. 1
T1 construct: His; made in house; host or cells: bacteria
Experimental: The AMPK heterotrimers were expressed in bacteria and purified through the His-α subunit by nickel purification before further purification through gel filtration. After being phosphorylated by incubation with CaMKKβ, AMPK complexes were further purified with a final gel filtration purification step. Phosphorylated purified AMPK was incubated with varying concentrations of Compound 1 or 2 for 30 mins using substrate and reagents from the HTRF-KinEASE Cisbio assay kit (STK S1 Kit). Phosphorylation of the substrate was measured by incubating with donor and acceptor antibodies for 2 h at room temperature as per the manufacturer's protocol (Coulerie et al., (2016) PMID: 27792327) and phosphorylated peptide detected by performing HTRF. The 665 nm/620 nm ratio was determined and plotted vs the log of the concentration of ligand.

[1] = tested on: phosphorylation of the AMPK substrate, acetyl-CoA carboxylase (ACC), in U2OS Flp-In T-REx mammalian cells; assay: pACC HTRF assay: phosphorylation of the AMPK substrate ACC in U2OS Flp-In T-REx cells; assay type: cell-based; details: varying concentrations, 1 h, media lacking FBS, FIG. 2
Experimental: U2OS Flp-In T-REx cells were first seeded at 50 K in a 96-well plate and left overnight at 37 C in DMEM GlutaMAX (Thermo Fisher Scientific) supplemented with 10% (vol/vol) FBS and 100 U/ml penicillin G, and 100 μg/ml streptomycin. Cells were treated for 1 h with varying concentrations of Lusianthridin in media lacking FBS and then cells were lysed in 50 μl of Cisbio lysis buffer #1 supplemented with blocking solution as per the manufacturer's protocol (Cisbio). Cells were lysed for 30 mins at room temperature before 16 μl of lysate was incubated with 4 μl of the HTRF antibodies (1:40 dilution of the acceptor and donor (p)ACC antibodies, as per the manufacturers protocol). Lysates were incubated overnight with the antibodies before 665 nm/620 nm ratio was determined using a MolecularDevices i3 plate reader (with a HTRF cartridge add-on).

T1 sequence (P54646 whole entry): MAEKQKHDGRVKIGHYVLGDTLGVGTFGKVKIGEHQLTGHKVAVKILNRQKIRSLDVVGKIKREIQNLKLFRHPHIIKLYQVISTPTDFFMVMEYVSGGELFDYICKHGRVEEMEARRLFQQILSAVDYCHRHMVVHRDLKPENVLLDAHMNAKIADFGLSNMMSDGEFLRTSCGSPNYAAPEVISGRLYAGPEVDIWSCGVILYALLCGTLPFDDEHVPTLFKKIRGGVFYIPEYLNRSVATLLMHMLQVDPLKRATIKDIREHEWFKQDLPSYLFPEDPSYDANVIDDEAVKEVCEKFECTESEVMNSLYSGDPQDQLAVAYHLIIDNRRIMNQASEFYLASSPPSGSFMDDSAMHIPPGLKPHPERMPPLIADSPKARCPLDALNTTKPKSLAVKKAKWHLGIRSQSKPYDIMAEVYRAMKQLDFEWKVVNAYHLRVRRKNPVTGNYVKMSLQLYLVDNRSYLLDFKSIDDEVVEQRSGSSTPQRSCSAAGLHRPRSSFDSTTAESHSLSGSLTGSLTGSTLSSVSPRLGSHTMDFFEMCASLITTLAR
T1 sequence (Q9Y478 whole entry): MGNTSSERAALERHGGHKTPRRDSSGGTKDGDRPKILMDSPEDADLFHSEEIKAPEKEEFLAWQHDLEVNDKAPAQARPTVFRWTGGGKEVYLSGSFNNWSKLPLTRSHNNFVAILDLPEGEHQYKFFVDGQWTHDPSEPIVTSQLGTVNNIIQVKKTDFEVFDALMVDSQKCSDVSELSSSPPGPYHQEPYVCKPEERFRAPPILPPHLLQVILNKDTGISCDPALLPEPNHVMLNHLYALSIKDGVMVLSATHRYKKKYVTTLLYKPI
T1 sequence (P54619 whole entry): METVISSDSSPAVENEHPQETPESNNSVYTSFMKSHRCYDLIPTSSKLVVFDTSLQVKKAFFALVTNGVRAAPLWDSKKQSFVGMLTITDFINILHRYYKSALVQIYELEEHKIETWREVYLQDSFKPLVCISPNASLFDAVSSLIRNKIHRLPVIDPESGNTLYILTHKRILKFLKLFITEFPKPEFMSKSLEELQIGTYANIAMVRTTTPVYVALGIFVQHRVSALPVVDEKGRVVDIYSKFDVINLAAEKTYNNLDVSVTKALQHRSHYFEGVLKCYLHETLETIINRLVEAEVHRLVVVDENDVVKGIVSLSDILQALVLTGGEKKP

SMILES	activation of AMPK complexes in vitro (substrate phosphorylation, 665 nm/620 nm HTRF ratio vs log concentration) (AMPKα2β1γ1)	phosphorylation of the AMPK substrate ACC (665 nm/620 nm HTRF ratio) [1]
COc1cc(O)c2c(ccc3cc(O)ccc32)c1 [Compound 1, 7-Methoxyphenanthrene-2,5-diol]	directly activate AMPK complexes in vitro	increase the phosphorylation of the AMPK substrate, ACC, in a dose-dependent manner
COc1cc(O)c2c(ccc3cccc(O)c32)c1 [Compound 2, 2-Methoxyphenanthrene-4,5-diol]	directly activate AMPK complexes in vitro	increase the phosphorylation of the AMPK substrate, ACC, in a dose-dependent manner
